# Measured values taken from ChEMBL document CHEMBL1201862, “PubChem BioAssay data set” (2004).
#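 Briefly, cells in 96-well plates were exposed to five compound concentrations for 48 h, and endpoints were estimated by linear interpolation. GI50 is the concentration that inhibits growth by half.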 Activity calls are given as the source filed them. No stated cut-off is given here; in the data, active = GI50 up to about 1.1 µM and inactive = higher.
# Legend:
# Experiment in all cases: DTP human tumour cell line panel, 48 h
# [1] = test system: 786-0
# [2] = test system: A498
# [3] = test system: A549
# [4] = test system: ACHN
# [5] = test system: CAKI-1
# [6] = test system: CCRF-CEM
# [7] = test system: COLO 205
# [8] = test system: DLD-1
# [9] = test system: DMS-114
# [10] = test system: DMS-273
# [11] = test system: EKVX
# [12] = test system: HCC 2998
# [13] = test system: HCT-116
# [14] = test system: HCT-15
# [15] = test system: HL-60
# [16] = test system: HOP-18
# [17] = test system: HOP-62
# [18] = test system: HOP-92
# [19] = test system: HT-29
# [20] = test system: IGROV-1
# [21] = test system: K562
# [22] = test system: KM-20L2
# [23] = test system: KM12
# [24] = test system: LOX IMVI
# [25] = test system: LXFL 529
# [26] = test system: M14
# [27] = test system: M19-MEL
# [28] = test system: Malme-3M
# [29] = test system: NCI-H23
# [30] = test system: NCI-H460
# [31] = test system: NCI-H522
# [32] = test system: OVCAR-3
# [33] = test system: OVCAR-5
# [34] = test system: OVCAR-8
# [35] = test system: RPMI-8226
# [36] = test system: SF-268
# [37] = test system: SF-295
# [38] = test system: SF-539
# [39] = test system: SK-MEL-28
# [40] = test system: SK-MEL-2
# [41] = test system: SK-MEL-5
# [42] = test system: SK-OV-3
# [43] = test system: SN12C
# [44] = test system: SNB-19
# [45] = test system: SNB-75
# [46] = test system: SNB-78
# [47] = test system: SR
# [48] = test system: SW-620
# [49] = test system: TK-10
# [50] = test system: U-251
# [51] = test system: UACC-257
# [52] = test system: UACC-62
# [53] = test system: UO-31
# [54] = test system: MOLT-4
# [55] = test system: OVCAR-4
# [56] = test system: RXF 393
# [57] = test system: XF498
smiles,measurement,setting,value
CC1(C)C2CCC3(C2)CS(=O)(=O)N2OC231 (stereo not drawn),GI50,[1],16.9 µM (inactive)
same,GI50,[2],25.2 µM (inactive)
same,GI50,[3],> 100 µM (inactive)
same,GI50,[4],15.9 µM (inactive)
same,GI50,[5],16 µM (inactive)
same,GI50,[6],24.5 µM (inactive)
same,GI50,[7],17.9 µM (inactive)
same,GI50,[8],23.7 µM (inactive)
same,GI50,[9],12.2 µM (inactive)
same,GI50,[10],29.4 µM (inactive)
same,GI50,[11],15.7 µM (inactive)
same,GI50,[12],38.1 µM (inactive)
same,GI50,[13],31.3 µM (inactive)
same,GI50,[14],16.1 µM
same,GI50,[15],15.4 µM (inactive)
same,GI50,[16],17.6 µM (inactive)
same,GI50,[17],79.8 µM (inactive)
same,GI50,[18],10.8 µM (inactive)
same,GI50,[19],15.2 µM (inactive)
same,GI50,[20],19.5 µM (inactive)
same,GI50,[21],17.4 µM (inactive)
same,GI50,[22],16.3 µM (inactive)
same,GI50,[23],19.6 µM (inactive)
same,GI50,[24],16.3 µM (inactive)
same,GI50,[25],16.7 µM (inactive)
same,GI50,[26],16.2 µM (inactive)
same,GI50,[27],15.7 µM (inactive)
same,GI50,[28],15.5 µM (inactive)
same,GI50,[29],16.6 µM (inactive)
same,GI50,[30],19.5 µM (inactive)
same,GI50,[31],13.8 µM (inactive)
same,GI50,[32],19.1 µM (inactive)
same,GI50,[33],23.7 µM (inactive)
same,GI50,[34],24.8 µM (inactive)
same,GI50,[35],29.5 µM (inactive)
same,GI50,[36],26.4 µM (inactive)
same,GI50,[37],> 100 µM (inactive)
same,GI50,[38],18.5 µM (inactive)
same,GI50,[39],25.4 µM (inactive)
same,GI50,[40],21.1 µM (inactive)
same,GI50,[41],21 µM (inactive)
same,GI50,[42],49.7 µM (inactive)
same,GI50,[43],16.9 µM (inactive)
same,GI50,[44],34.4 µM (inactive)
same,GI50,[45],17 µM (inactive)
same,GI50,[46],25.5 µM (inactive)
same,GI50,[47],> 100 µM (inactive)
same,GI50,[48],16.5 µM (inactive)
same,GI50,[49],18 µM (inactive)
same,GI50,[50],34.4 µM (inactive)
same,GI50,[51],17.1 µM (inactive)
same,GI50,[52],17.5 µM (inactive)
same,GI50,[53],16.1 µM (inactive)
COc1cc(C(=O)NO)ccc1O,GI50,[1],> 100 µM (inactive)
same,GI50,[2],> 100 µM (inactive)
same,GI50,[3],> 100 µM (inactive)
same,GI50,[4],> 100 µM (inactive)
same,GI50,[6],> 100 µM (inactive)
same,GI50,[7],> 100 µM (inactive)
same,GI50,[8],> 100 µM (inactive)
same,GI50,[9],> 100 µM (inactive)
same,GI50,[10],> 100 µM (inactive)
same,GI50,[11],> 100 µM (inactive)
same,GI50,[12],> 100 µM (inactive)
same,GI50,[13],> 100 µM (inactive)
same,GI50,[14],> 100 µM
same,GI50,[15],> 100 µM (inactive)
same,GI50,[16],> 100 µM (inactive)
same,GI50,[17],> 100 µM (inactive)
same,GI50,[18],> 100 µM (inactive)
same,GI50,[19],> 100 µM (inactive)
same,GI50,[20],> 100 µM (inactive)
same,GI50,[21],> 100 µM (inactive)
same,GI50,[22],> 100 µM (inactive)
same,GI50,[23],> 100 µM (inactive)
same,GI50,[24],> 100 µM (inactive)
same,GI50,[25],> 100 µM (inactive)
same,GI50,[26],> 100 µM (inactive)
same,GI50,[27],> 100 µM (inactive)
same,GI50,[54],> 100 µM (inactive)
same,GI50,[28],> 100 µM (inactive)
same,GI50,[29],> 100 µM (inactive)
same,GI50,[30],> 100 µM (inactive)
same,GI50,[31],> 100 µM (inactive)
same,GI50,[32],> 100 µM (inactive)
same,GI50,[55],> 100 µM (inactive)
same,GI50,[33],> 100 µM (inactive)
same,GI50,[34],> 100 µM (inactive)
same,GI50,[35],> 100 µM (inactive)
same,GI50,[56],> 100 µM (inactive)
same,GI50,[36],> 100 µM (inactive)
same,GI50,[37],> 100 µM (inactive)
same,GI50,[38],87.7 µM (inactive)
same,GI50,[39],> 100 µM (inactive)
same,GI50,[40],> 100 µM (inactive)
same,GI50,[42],> 100 µM (inactive)
same,GI50,[43],> 100 µM (inactive)
same,GI50,[44],> 100 µM (inactive)
same,GI50,[45],> 100 µM (inactive)
same,GI50,[46],> 100 µM (inactive)
same,GI50,[48],> 100 µM (inactive)
same,GI50,[49],> 100 µM (inactive)
same,GI50,[50],> 100 µM (inactive)
same,GI50,[51],> 100 µM (inactive)
same,GI50,[52],> 100 µM (inactive)
same,GI50,[53],> 100 µM (inactive)
Cc1cc2c(C)n[nH]c2c(C(=O)O)c1C,GI50,[1],> 100 µM (inactive)
same,GI50,[2],> 100 µM (inactive)
same,GI50,[3],> 100 µM (inactive)
same,GI50,[4],> 100 µM (inactive)
same,GI50,[5],> 100 µM (inactive)
same,GI50,[6],> 100 µM (inactive)
same,GI50,[7],> 100 µM (inactive)
same,GI50,[8],> 100 µM (inactive)
same,GI50,[9],> 100 µM (inactive)
same,GI50,[10],> 100 µM (inactive)
same,GI50,[11],> 100 µM (inactive)
same,GI50,[12],> 100 µM (inactive)
same,GI50,[13],> 100 µM (inactive)
same,GI50,[14],> 100 µM
same,GI50,[15],> 100 µM (inactive)
same,GI50,[17],> 100 µM (inactive)
same,GI50,[18],< 0.01 µM (active)
same,GI50,[19],> 100 µM (inactive)
same,GI50,[20],> 100 µM (inactive)
same,GI50,[21],> 100 µM (inactive)
same,GI50,[22],> 100 µM (inactive)
same,GI50,[23],> 100 µM (inactive)
same,GI50,[25],> 100 µM (inactive)
same,GI50,[27],> 100 µM (inactive)
same,GI50,[54],> 100 µM (inactive)
same,GI50,[29],85.7 µM (inactive)
same,GI50,[30],> 100 µM (inactive)
same,GI50,[32],> 100 µM (inactive)
same,GI50,[55],51.6 µM (inactive)
same,GI50,[34],> 100 µM (inactive)
same,GI50,[35],> 100 µM (inactive)
same,GI50,[56],> 100 µM (inactive)
same,GI50,[37],> 100 µM (inactive)
same,GI50,[38],> 100 µM (inactive)
same,GI50,[39],> 100 µM (inactive)
same,GI50,[40],> 100 µM (inactive)
same,GI50,[43],> 100 µM (inactive)
same,GI50,[44],> 100 µM (inactive)
same,GI50,[45],> 100 µM (inactive)
same,GI50,[46],36.2 µM (inactive)
same,GI50,[47],> 100 µM (inactive)
same,GI50,[48],> 100 µM (inactive)
same,GI50,[50],> 100 µM (inactive)
same,GI50,[51],> 100 µM (inactive)
same,GI50,[52],> 100 µM (inactive)
same,GI50,[53],85.5 µM (inactive)
same,GI50,[57],> 100 µM (inactive)
